Data set [1] deals with Mus musculus. The data set can be described thus: Toxicity in ip dosed mouse. It is filed as organism-based. Conditions: in vivo.
In data set [2] the test system is Musca domestica. Nature of the data set: Insecticidal activity against Musca domestica in presence of piperonyl butoxide applied topically. It is filed as functional, organism-based.
In data set [3] the test system is Tribolium castaneum. The data set can be described thus: Insecticidal activity against Tribolium castaneum first instar larvae. It is filed as functional, organism-based.
For data set [4], the target named is Ryanodine receptor 1 (Oryctolagus cuniculus) (UniProt P11716). The data set can be described thus: Displacement of [3H]ryanodine from Ca2+- ryanodine 1 receptor complex in rabbit skeletal muscle.
Ryanodine receptor 1 (Oryctolagus cuniculus), sequence (P11716 whole entry): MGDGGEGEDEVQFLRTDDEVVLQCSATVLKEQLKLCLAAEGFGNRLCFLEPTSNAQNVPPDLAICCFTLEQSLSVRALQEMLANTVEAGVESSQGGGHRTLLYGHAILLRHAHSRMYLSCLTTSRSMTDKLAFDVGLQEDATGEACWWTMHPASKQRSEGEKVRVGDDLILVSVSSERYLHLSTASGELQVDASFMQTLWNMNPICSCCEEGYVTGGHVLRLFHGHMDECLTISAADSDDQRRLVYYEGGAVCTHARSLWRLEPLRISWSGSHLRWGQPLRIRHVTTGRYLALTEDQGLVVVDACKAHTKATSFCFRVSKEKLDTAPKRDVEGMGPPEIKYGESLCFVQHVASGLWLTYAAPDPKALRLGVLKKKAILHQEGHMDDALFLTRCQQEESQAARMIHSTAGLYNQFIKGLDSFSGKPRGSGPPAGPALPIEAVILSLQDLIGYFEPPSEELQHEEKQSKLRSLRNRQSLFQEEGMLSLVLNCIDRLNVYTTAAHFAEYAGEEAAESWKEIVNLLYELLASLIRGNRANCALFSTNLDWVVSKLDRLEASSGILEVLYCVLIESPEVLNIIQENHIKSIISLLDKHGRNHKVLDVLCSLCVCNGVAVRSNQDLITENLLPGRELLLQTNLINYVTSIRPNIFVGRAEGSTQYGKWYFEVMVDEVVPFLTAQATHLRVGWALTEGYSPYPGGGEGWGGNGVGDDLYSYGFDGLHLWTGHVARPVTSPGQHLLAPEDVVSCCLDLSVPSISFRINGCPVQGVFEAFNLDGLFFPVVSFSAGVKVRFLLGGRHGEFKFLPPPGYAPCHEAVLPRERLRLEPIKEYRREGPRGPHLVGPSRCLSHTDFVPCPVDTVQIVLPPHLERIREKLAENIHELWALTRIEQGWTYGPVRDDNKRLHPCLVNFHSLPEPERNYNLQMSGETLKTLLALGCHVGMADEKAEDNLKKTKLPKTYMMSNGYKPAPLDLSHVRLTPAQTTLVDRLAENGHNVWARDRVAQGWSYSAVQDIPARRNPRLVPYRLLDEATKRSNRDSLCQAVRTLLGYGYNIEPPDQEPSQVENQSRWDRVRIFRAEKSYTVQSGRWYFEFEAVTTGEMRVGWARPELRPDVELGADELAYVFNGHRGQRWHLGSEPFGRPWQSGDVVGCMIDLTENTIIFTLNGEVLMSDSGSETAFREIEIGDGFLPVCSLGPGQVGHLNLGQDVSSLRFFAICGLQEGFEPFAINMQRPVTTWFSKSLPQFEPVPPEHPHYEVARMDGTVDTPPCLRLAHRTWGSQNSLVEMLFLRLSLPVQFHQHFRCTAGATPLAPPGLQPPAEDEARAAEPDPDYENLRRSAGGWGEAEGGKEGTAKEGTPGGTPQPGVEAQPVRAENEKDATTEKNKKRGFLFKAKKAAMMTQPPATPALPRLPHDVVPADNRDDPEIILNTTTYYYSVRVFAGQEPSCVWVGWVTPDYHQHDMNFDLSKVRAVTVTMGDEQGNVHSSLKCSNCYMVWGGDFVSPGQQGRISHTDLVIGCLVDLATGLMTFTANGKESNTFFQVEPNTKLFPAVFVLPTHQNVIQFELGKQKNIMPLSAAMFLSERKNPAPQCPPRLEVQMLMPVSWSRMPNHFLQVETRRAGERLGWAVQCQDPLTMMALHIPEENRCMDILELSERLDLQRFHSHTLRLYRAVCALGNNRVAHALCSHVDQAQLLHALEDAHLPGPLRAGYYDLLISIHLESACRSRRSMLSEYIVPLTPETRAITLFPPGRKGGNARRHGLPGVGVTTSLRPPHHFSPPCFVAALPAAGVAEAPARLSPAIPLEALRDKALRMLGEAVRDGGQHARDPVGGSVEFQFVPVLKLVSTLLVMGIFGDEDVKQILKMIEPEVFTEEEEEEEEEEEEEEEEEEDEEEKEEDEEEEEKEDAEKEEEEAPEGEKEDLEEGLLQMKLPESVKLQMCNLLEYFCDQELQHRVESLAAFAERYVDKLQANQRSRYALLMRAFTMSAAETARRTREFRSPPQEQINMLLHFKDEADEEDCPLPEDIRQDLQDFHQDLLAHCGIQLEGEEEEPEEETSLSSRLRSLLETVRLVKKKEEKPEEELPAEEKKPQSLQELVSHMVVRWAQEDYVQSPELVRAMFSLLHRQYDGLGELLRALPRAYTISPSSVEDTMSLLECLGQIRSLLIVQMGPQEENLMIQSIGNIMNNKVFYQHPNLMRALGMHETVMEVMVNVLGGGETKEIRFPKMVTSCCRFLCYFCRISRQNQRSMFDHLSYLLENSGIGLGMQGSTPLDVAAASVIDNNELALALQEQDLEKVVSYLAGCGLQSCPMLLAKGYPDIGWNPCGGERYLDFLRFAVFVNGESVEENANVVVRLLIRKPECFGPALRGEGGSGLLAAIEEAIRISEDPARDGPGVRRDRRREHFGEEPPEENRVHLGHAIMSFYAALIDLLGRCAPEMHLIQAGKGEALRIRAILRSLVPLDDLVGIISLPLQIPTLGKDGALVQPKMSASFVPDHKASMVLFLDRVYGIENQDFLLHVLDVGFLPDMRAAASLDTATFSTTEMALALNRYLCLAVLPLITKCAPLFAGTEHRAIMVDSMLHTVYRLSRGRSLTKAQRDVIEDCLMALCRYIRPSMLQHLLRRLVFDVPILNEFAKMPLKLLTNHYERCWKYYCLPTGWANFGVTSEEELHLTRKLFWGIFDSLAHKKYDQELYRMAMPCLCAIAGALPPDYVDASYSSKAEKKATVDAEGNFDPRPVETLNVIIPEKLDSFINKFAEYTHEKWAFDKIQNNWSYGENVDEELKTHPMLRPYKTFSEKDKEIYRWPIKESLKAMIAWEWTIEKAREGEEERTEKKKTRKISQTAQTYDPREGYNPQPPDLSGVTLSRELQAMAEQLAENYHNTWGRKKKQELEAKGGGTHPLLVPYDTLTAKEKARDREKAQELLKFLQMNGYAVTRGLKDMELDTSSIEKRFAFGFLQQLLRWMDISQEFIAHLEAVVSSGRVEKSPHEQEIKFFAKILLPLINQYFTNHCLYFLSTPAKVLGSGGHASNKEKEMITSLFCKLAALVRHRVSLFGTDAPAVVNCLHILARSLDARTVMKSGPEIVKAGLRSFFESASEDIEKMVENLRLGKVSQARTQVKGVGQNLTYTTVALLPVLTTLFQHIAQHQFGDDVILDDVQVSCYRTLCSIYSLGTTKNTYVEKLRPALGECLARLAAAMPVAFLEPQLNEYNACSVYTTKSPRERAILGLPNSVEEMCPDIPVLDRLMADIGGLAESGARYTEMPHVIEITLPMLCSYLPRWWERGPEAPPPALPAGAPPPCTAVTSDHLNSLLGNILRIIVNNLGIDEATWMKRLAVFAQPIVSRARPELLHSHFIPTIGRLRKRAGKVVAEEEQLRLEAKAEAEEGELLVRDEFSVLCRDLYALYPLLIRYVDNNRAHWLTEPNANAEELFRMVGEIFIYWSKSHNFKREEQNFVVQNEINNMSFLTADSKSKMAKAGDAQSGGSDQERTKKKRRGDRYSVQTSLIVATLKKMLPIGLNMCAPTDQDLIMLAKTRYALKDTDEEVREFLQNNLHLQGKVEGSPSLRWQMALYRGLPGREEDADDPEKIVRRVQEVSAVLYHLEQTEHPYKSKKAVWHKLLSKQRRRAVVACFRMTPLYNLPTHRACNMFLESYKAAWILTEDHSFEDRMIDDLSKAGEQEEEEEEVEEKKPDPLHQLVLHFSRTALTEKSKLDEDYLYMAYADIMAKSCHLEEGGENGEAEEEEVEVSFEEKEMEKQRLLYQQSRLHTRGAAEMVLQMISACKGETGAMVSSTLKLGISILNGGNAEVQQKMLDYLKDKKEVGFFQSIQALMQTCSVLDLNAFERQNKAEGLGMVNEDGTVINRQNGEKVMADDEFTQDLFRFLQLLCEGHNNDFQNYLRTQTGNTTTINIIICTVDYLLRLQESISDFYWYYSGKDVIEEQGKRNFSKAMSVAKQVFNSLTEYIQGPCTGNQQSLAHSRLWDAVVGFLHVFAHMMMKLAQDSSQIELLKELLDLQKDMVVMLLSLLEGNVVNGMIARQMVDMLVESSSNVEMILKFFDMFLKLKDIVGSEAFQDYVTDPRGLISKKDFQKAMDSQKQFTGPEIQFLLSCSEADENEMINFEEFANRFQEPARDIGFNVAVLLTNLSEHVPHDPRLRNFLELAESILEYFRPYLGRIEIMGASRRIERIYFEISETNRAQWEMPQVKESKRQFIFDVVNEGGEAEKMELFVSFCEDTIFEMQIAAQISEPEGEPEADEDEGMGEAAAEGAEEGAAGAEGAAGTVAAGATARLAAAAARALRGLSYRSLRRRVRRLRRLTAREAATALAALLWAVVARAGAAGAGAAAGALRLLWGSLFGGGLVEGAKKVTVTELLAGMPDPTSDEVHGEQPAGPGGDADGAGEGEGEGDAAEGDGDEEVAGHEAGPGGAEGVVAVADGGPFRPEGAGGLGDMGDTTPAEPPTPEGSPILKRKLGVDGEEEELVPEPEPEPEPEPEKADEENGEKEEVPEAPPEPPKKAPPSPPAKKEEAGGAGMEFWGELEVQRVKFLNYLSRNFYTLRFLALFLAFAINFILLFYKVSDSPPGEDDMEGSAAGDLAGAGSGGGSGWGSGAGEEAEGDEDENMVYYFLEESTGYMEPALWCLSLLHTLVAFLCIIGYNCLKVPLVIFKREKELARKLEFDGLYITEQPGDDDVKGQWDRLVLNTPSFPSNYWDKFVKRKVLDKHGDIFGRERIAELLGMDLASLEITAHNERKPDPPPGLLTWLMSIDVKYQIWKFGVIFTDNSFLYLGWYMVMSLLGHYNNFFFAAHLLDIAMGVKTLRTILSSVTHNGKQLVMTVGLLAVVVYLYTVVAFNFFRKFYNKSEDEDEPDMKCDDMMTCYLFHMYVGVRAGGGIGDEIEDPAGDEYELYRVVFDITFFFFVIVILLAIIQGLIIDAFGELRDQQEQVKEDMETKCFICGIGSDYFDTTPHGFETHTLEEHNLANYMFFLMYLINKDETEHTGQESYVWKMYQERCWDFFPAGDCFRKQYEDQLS

Calls of active or inactive are those of the source. The calls are words filed in the database; no cut-off is given here.

As for `CC(C)[C@@]1(O)[C@@H](OC(=O)c2ccc[nH]2)[C@@]2(O)[C@@]3(C)C[C@]4(O)O[C@@]5([C@H](O)[C@@H](C)CC[C@]35O)[C@@]2(O)[C@@]14C` [RYANODINE], in data set [1], the result was Active.
With `CC(C)[C@@]1(O)[C@@H](OC(=O)c2cccnc2)[C@@]2(O)[C@]3(C)C[C@@]4(O)O[C@@]5([C@H](O)[C@@H](C)CC[C@]35O)[C@@]2(O)[C@@]41C`, the result in data set [2], in data set [3] and in data set [4] was inactive. Also, the Activity entry in data set [1] is recorded as “Not Active”.
Turning to `CC(C)[C@@]1(O)[C@@H](OC(=O)c2cc[nH]c2)[C@@]2(O)[C@]3(C)C[C@@]4(O)O[C@@]5([C@H](O)[C@@H](C)CC[C@]35O)[C@@]2(O)[C@@]41C`, the outcome in data set [2] and in data set [3] was Active.

(Values after ChEMBL document CHEMBL1158979, “Ryanodyl 3-(pyridine-3-carboxylate): a novel ryanoid from Ryania insecticide” (J Nat Prod, 1991).)
